Data reported in patent publication US10316056B2, “Chemical compounds and use thereof for improving muscular quality” (BIOPHYTIS, priority 2014, dated 2019).

Columns and labels:
[1] = in vivo; conditions: male, Wistar, rat, po, 10 mg/kg
Description: (§5) The pharmacokinetics of the compounds were evaluated orally using male Wistar rats (Charles River). […] The novel compounds according to the invention were administered at a dose of 10 mg/kg of body weight in the form of a mixture of 4 to 6 products. After administration, the blood was sampled from the tail at t=0.25 h, 0.5 h, 1 h, 3 h, 6 h and 8 h. The blood samples were centrifuged and the plasmas removed.

[2] = system: MyoD transcripts; experiment: Mice subjected to a high-fat diet: MyoD transcripts of the Soleus muscle; assay type: in vivo, C57BL/6J mice; conditions: 5 mg/kg orally; high-fat diet for 6 weeks; FIG. 5A
Description: (§1) The 20E as comparative compound and the compounds according to the invention (Nos. 51 and 93) were administered orally, at a dose of 5 mg/kg of body weight, to 12-week-old C57BL/6J mice subjected to a high-fat diet for 6 weeks. The effect of the compounds on the weight and the amount of proteins of the Soleus muscle and also the transcripts of genes involved in myogenesis were evaluated.
(§2) Myogenesis, which is the process for forming muscle tissues, is controlled by several myogenic transcription factors which act as end effectors of the signaling cascade and produce transcripts involved in the various stages of development. The roles of the transcription factors have been described in various journals (Sabourin and Rudnicki 2000 and Le Grand and Rudnicki 2007). The Pax7 protein (Paired-box protein 7) maintains a population of satellite cells in quiescence and, with Myf5 (Myogenic factor 5), plays a role in the expansion of activated myoblasts. The MyoD protein (Myoblast Determination protein) appears to determine the differentiation potential of activated myoblasts, and cooperates with myogenin and the MEF2 (Myocyte Enhancer Factor 2) protein to control and bring about differentiation. Finally, MRF4 (Muscle-specific Regulatory Factor 4) is required for hypertrophy, even though it probably plays other roles. […]
(§3) The relative differences in gene expression between treatments are expressed as increase or decrease in the number of cycle times [Ct] compared with the control group, the [Ct] value of each gene having been standardized with the beta-actin gene.
(§4) The in vivo study is carried out by evaluating the effect of 20E as comparative compound and of the molecules according to the invention (Nos. 51 and 93) administered orally, at a dose of 5 mg/kg of body weight, to C57BL/6 mice subjected to a high-fat diet for 6 weeks. The effect of the molecules on the weight and the amount of proteins of the Soleus muscle and also the transcripts of genes involved in myogenesis were evaluated.

[3] = system: myostatin transcript; experiment: Mice subjected to a high-fat diet: myostatin transcript of the Soleus muscle; assay type: in vivo, C57BL/6J mice; conditions: 5 mg/kg orally; high-fat diet for 6 weeks; FIG. 4
Description: as §1
In order to carry out the gene expression analysis, the muscle tissues were homogenized in a Trizol solution (500 μl), and the RNAs were extracted and purified using the phenol/chloroform method. An amount of […] of RNA was used as template for the synthesis of the first cDNA strand using oligo (dT)s as primers and the AMV reverse transcriptase enzyme as described by the supplier (Applied Biosystems 4368814). The q-PCRs were then carried out using a 7900HT machine equipped with a rapid system for real-time detection by PCR (Applied Biosystems) and the standard qPCR program (1 cycle of 95° C. for 15 min, 40 cycles of 95° C. for 15 s and 60° C. for 1 min, a 60-95° C. melt curve for the Sybergreen probes). The experiments are carried out in a Sybergreen SYBR master mix (Applied Biosystems) containing the 100 ng cDNA samples and a set of primers which bind to the two different exons and at a final concentration of 200 nM.
as §3, §4

[4] = system: Myf5 gene transcripts; experiment: Mice subjected to a high-fat diet: Myf5 transcripts; assay type: in vivo, C57BL/6J mice; conditions: 5 mg/kg orally; high-fat diet for 6 weeks
Description: as §1, §2, §3, §4

[5] = rat, in vivo, po; for Cexp (coefficient of exposure): male, Wistar
Description: as §5

[6] = system: myogenin transcripts; experiment: Mice subjected to a high-fat diet: myogenin transcripts of the Soleus muscle; assay type: in vivo, C57BL/6J mice; conditions: 5 mg/kg orally; high-fat diet for 6 weeks; FIG. 5B
Description: as §1, §2, §3, §4

[7] = system: S6 kinase (S6K1) phosphorylation in C2C12 cells; experiment: Phosphorylation of the S6 kinase in C2C12 cells (ELISA pS6K T389), protein synthesis; assay type: cell-based, mouse; conditions: Mus musculus, C2C12, 2 h; for activity at 10 µM: read-out: Protein synthesis (percentage increase in S6K phosphorylation in muscle cells); for activity: test compounds and 20E reference (10 μM), read-out: S6K1 phosphorylation level

| SMILES | AUC [1] [ng·h/mL] | Cmax [1] [ng/mL] | Tmax [1] [min] | transcripts of the MyoD gene [2] | myostatin expression in the Soleus muscle [3] | transcripts of the Myf5 gene [4] | Cexp (coefficient of exposure) [5] | plasma exposure compared with 20E [5] | transcript of the myogenin gene [6] | activity at 10 µM [7] [%] | activity [7] [%] |
| --- | --- | --- | --- | --- | --- | --- | --- | --- | --- | --- | --- |
| CCC(CC)C(=O)N(CCOC)C(C)[C@H]1CC[C@@]2(O)C3=CC(=O)[C@@H]4C[C@@H](O)[C@@H](O)C[C@]4(C)C3CC[C@]12C (stereo partly drawn) [Compound 51, 2-ethyl-N-(2-methoxyethyl)-N-[1-[(2S,3R,5R,10R,13R,14S,17S)-2,3,14-trihydroxy-10,13-dimethyl-6-oxo-2,3,4,5,9,11,12,15,16,17-decahydro-1H-cyclopenta[a]phenanthren-17-yl]ethyl]butanamide] | 273 | 174 | 15 | increase | comparably inhibit | increase | 3.6 | better plasma exposure | increase | 110 to 129 | ~120 |
| CCSCC(=O)[C@H]1CC[C@@]2(O)C3=CC(=O)[C@@H]4C[C@@H](O)[C@@H](O)C[C@]4(C)C3CC[C@]12C (stereo partly drawn) [Compound 93, (2S,3R,5R,10R,13R,14S,17S)-17-(2-ethylsulfanylacetyl)-2,3,14-trihydroxy-10,13-dimethyl-2,3,4,5,9,11,12,15,16,17-decahydro-1H-cyclopenta[a]phenanthren-6-one] | 785 | 230 | 30 | increase | comparably inhibit | increase | 10.3 | better plasma exposure | increase | > 130 | 130 to 140 |
